The text below walks through data of US7855189B2, “N-phenylphosphoric acid triamides, method for the production thereof and their use as agents for regulating or inhibiting enzymatic urea hydrolysis” (SKW Stickstoffwerke Piesteritz GmbH, priority 2004, dated 2010).

Marks after values point to notes of the source that are not given here.

The subject of the assay is urease. The experiment in a line: Testing for urease-inhibiting effect in soil (NH3-N release from urea). The conditions noted are these: 30 g soil at 40% of max water capacity, 50 mg urea. In kind it is biochemical. The procedure:
30 g soil set to 40% of the maximum water capacity are added with 1 ml urea solution corresponding to 50 mg urea. At the same time the active substance is applied, preferably dissolved in the urea solution. The concentration details for the individual tested active substances given in the following table relate to the quantity of carbamide nitrogen used in the test. The soil, on the surface of which the urea solution (with and without the active substance) is applied is located in an airtight sealed container into which a receiver is inserted at the same time which collects the ammonia released from the urea as ammonium. By rinsing the receiver daily and analysing the NH4—N quantities contained, the NH3—N-release from the urea is determined.
From the summation of the ammonium quantities in the receiver, the percentage inhibition of the urea hydrolysis dependently upon time is calculated and from these values the t50 value is determined mathematically.
The t50 value is understood to be the time in days since the start of the test at which the urea hydrolysis inhibition is still 50%.

Consider `NP(N)(=O)Nc1ccccc1[N+](=O)[O-]` [Compound 1, N-(2-nitrophenyl)phosphoric acid triamide], for which the “urease inhibition t50 value (time in days at which the urea hydrolysis inhibition is still 50%)” value (conc. 0.05 % HS-N-related (in relation to urea nitrogen used)) is >25^b) d. With `Cc1cccc(NP(N)(N)=O)c1` [Compound 2, N-(3-methylphenyl)phosphoric acid triamide], the “urease inhibition t50 value (time in days at which the urea hydrolysis inhibition is still 50%)” value (conc. 0.5 % HS-N-related (in relation to urea nitrogen used)) stood at 11.2 days.
